According to US20230121031A1, “MASKED FLUOROGENIC COMPOUNDS AND METHODS OF USING THE SAME” (Rutgers, The State University of New Jersey, priority 2021, published 2023):

Experiments:
[1] = system: BL21-DE3 cells; assay: Fluorescence imaging of H2S in E. coli expressing aptamer; type: cell-based; conditions: upon introduction of H2S (1 mM)
Description: FIGS. 9A-9D depict detection of H2S in E. coli utilizing AEC-MFHBI. FIG. 9A provides a schematic showing the detection of H2S in E. coli by fluorescence of MFHBI upon cleavage from AEC-MFHBI. FIGS. 9B-9D provide fluorescence images of E. coli expressing aptamer plasmid which have been administered MFHBI (FIG. 9B), AEC-MFHBI (FIG. 9C), and AEC-MFHBI in the presence of H2S (FIG. 9D). Dual channel: MFHBI+RNA (470/550 nm) and FM 4-64FX (510/640 nm). Scale bar: 10 μm.
Imaging of hydrogen sulfide (H2S) has been performed in an analogous manner to that which is described for the detection of H2O2. Specifically, BL21-DE3 cells are transformed with plasmid DNA that contains a T7 promoter and RNABabySpinach or a custom triple baby spinach construct, which allows for the expression of three baby spinach RNA aptamers per transcription cycle. These cells are inoculated with isopropyl β-D-1-thiogalactopyranoside (IPTG) to induce RNA transcription. Subsequent immobilization of the cells on glass dish coated with poly-L-lysine (PLL) and incubation with an imaging buffer (IB) containing the imaging agents and/or controls (i.e., MFHBI, FIG. 9B; or AEC-MFHBI, FIGS. 9C-9D), allowed real time fluorescence imaging of SH2 in cellulo.

[2] = system: E. coli competent cells (e.g., BL21-DE3); assay: Fluorescence imaging of H2O2 in E. coli expressing aptamer; type: cell-based; conditions: for fluorescence in E. coli expressing aptamer: imaging buffer with H2O2 (100 μM)
Description: FIGS. 8A-8D depict detection of H2O2 in E. coli utilizing PBAB-MFHBI. FIG. 8A provides a schematic showing the detection of H2O2 in E. coli by fluorescence of MFHBI upon cleavage from PBAB-MFHBI. FIGS. 8B-8D provide fluorescence images of E. coli expressing aptamer plasmid which have been administered MFHBI (FIG. 8B), PBA-MFHBI (FIG. 8C), and PBA-MFHBI in the presence of H2O2 (FIG. 8D). Dual channel: MFHBI+RNA (470/550 nm) and FM 4-64FX (510/640 nm). Scale bar: 10 μm.
For histochemical detection of oxidative stress in living cells, the focus is first on E. coli competent cells (e.g., BL21-DE3) (FIGS. 8A-8D). For the imaging of H2O2, BL21-DE3 cells are transformed with plasmid DNA that contains a T7 promoter and RNABabySpinach or a custom triple baby spinach construct, which allows for the expression of three baby spinach RNA aptamers per transcription cycle. These cells are inoculated with isopropyl β-D-1-thiogalactopyranoside (IPTG) to induce RNA transcription. […] The results can guide additional studies with more complex and biologically relevant cell lines, in particular, any primary or established mammalian cells (e.g., HEK293, HeLa, and HUVEC, inter alia). Detection of endogenous H2O2 generation can also be studied by using molecular stimulants known to trigger mitochondrial ROS production, such as Phorbol 12-myristate 13-acetate (PMA).

[3] = system: RNABabySpinach; assay: Fluorescence of H2O2-treated aptamer solutions; type: biochemical; conditions: for rise of fluorescence intensity of ligand+RNABabySpinach+H2O2: H2O2 100 μM
Description: FIGS. 7A-7C depict H2O2 treatment of the aptamer systems. HBI and PBE-HBI (50 μM), RNA (1 μM RNABabySpinach), HEPES (pH 8, 50 mM), KCl (100 mM), MgCl2 (10 mM), H2O2 (100 μM). FIG. 7A depict the time-dependent change in fluorescence intensity upon H2O2 addition. FIG. 7B depicts normalized RFUs at 0, 5, and 60 min. FIG. 7C depicts RNABabySpinach stability against H2O2. TBE-urea PAGE lanes: 1. Native RNA; 2. [HBI+RNA]; 3. [HBI+RNA+H2O2]; 4. [PBE-HBI+RNA]; 5. [PBE-HBI+RNA+H2O2]. For imaging, the gel was stained with SYBR gold.
Next, the change in fluorescence for H2O2-treated aptamer solutions that contain HBI (positive control) and PBE-HBI (FIGS. 7A and 7B) was monitored. The RFU of PBE-HBI+RNABabySpinach was lower than that of HBI+RNABabySpinach by 14-fold at 0 min (no H2O2 present), validating that masking the phenolic oxygen of HBI inhibits RNA binding. Upon addition of H2O2 (100 μM), RFU of PBE-HBI+RNABabySpinach reached up to 92% of RFU of the control in 60 min. […] Upon H2O2 addition, the solution pH increased from 8.0 to 8.4 while ˜10% growth in fluorescence intensity was measured for the HBI-containing samples. This change is attributed to the pH-dependent increase in the phenolate form of HBI (see FIG. 5), which is known to have a higher extinction coefficient than its phenol form. […] To investigate the backbone stability of RNABabySpinach under these oxidative conditions, PAGE analyses of RNABabySpinach solutions containing HBI (FIG. 7C, lanes 2 and 3) and PBE-HBI (FIG. 7C, lanes 4 and 5) were carried out.
Remarkably, the kinetics of H2O2 detection, which involves conversion of PBE-HBI to HBI, followed by HBI-aptamer binding, is fast. The incubation time to achieve 1/2 RFUmax through this process is 6.8 (±0.5) min. Reliable detection of H2O2 is feasible in ˜1 min as the fluorescence intensity doubles. These findings are encouraging and serve as a standard for comparing the detection kinetics for other probes. […] In certain embodiments, reliable detection of elevated ALP may require longer incubations with the respective ABA system (FIG. 3G), as ALP has a relatively small margin of variation. The rates of biomarker detection can be modulated by substituting the HBI carbon framework of the probes (FIGS. 3A-3G) with electron donating (—OMe, —NMe2) or withdrawing (—F, —CF3) groups.

[4] = free (unbound) ligand; cited from earlier work
[5] = not told; cited from earlier work
[6] = system: RNABabySpinach (51-nt); assay: Experimental binding assay (fluorescence) with RNABabySpinach; conditions: Fluorophore (2 μM), RNA (1 μM); for fluorescence intensity with RNABabySpinach: HEPES (pH 8, 20 mM), KCl (100 mM), MgCl2 (10 mM)
Description: FIGS. 4A-4E depict the effect of chemical modifications of HBI on its binding interactions with RNA. FIG. 4A is a crystal structure of DFHBI-RNASpinach (PDB: 4TS2) focusing on the key H-bonding interactions of DFHBI within the G-G-A binding pocket of RNASpinach. […] FIG. 4C is a Pymol view of docked Oct-HBI-RNASpinach, showing that these interactions are disrupted. FIG. 4D is a Pymol view of a docked methyl carbonate-modified HBI-RNASpinach, showing that these interactions are disrupted. FIG. 4E depicts normalized RFUs of HBI and HBI+RNABabySpinach (gray bars) vs. Oct-HBI and Oct-HBI+RNABabySpinach (blue bars). Fluorophore (2 μM), RNA (1 μM), HEPES (pH 8, 20 mM), KCl (100 mM), and MgCl2 (10 mM).
Ligand docking is a useful tool to screen virtual library of molecules to predict binding affinity and conformation of a ligand within a binding pocket. To gain a theoretical insight into the effect of chemical modifications of HBI on its binding interactions with RNA, a robust docking method named Auto-Dock Vina was used (FIGS. 4A-4D). First, the validity of this method was tested by comparing the proposed HBI-RNASpinach docking (FIG. 4B) with the X-ray crystal structure of the native ligand-RNASpinach [FIG. 4A; the co-crystallized ligand in the reported study is 3,5-difluoro-HBI (DFHBI)]. To attain the initial HBI structure for docking, optimizations were performed in gas phase via density functional theory calculations using B3LYP, 6-31G basis set in Gaussian16 software. […] Next, the phenolic oxygen of HBI was replaced with alkyl carbonate groups.

## CC1=N/C(=C\c2ccc(OC(=O)OCCN=[N+]=[N-])c(F)c2)C(=O)N1C [AEC-MFHBI]
[1]
  fluorescence in E. coli expressing aptamer: rapid increase in fluorescence is observed within one hour

## CC1=N/C(=C\c2ccc(OCc3ccc(B(O)O)cc3)c(F)c2)C(=O)N1C [PBAB-MFHBI]
[2]; exogenous H2O2 absent (FIG. 8C)
  fluorescence in E. coli expressing aptamer, control sample: very small increase in fluorescence
[2]
  fluorescence in E. coli expressing aptamer: rapid increase in fluorescence within one hour

## CC1=N/C(=C\c2ccc(OCc3ccc(B4OC(C)(C)C(C)(C)O4)cc3)cc2)C(=O)N1C [PBE-HBI]
[2]
  fluorescence in E. coli expressing aptamer: rapid increase in fluorescence within one hour
[3]; 0 min (no H2O2 present), 50 μM ligand, 1 μM RNA, HEPES pH 8
  RFU lower than that of HBI+RNABabySpinach: 14 fold
[3]; H2O2 (100 μM), in 60 min
  RFU as % of RFU of the control (HBI+RNABabySpinach): up to 92%
[3]; H2O2 detection
  time for reliable detection of H2O2 (fluorescence intensity doubles): ~1 min
[3]; H2O2 detection: conversion to HBI followed by HBI-aptamer binding
  incubation time to achieve 1/2 RFUmax: 6.8 (±0.5) min
[3]; after 60 min
  rise of fluorescence intensity of ligand+RNABabySpinach+H2O2: ~8 fold
[3]; at 5 min
  rise of fluorescence intensity of ligand+RNABabySpinach+H2O2: ~4 fold

## 4-hydroxy-benzylidene imidazolinone [HBI, reference compound]
[4]
  fluorescence quantum yield Φf: ~0.0001
[3]; H2O2 addition, solution pH increased from 8.0 to 8.4
  growth in fluorescence intensity upon H2O2 addition: ~10%
[5]
  cell permeability: cell permeable
[6]
  fluorescence intensity with RNABabySpinach: 846 RFU

## CCCCCCCCOC(=O)Oc1ccc(/C=C2\N=C(C)N(C)C2=O)cc1 [Oct-HBI]
[6]
  fluorescence intensity with RNABabySpinach: 21 RFU
[6]; HEPES pH 8
  decrease in fluorescence intensity compared to HBI-RNABabySpinach: ~40 times
